For experiment [1], the target named is T1, rat GPR14 (U-II receptor) (Rattus norvegicus, UniProt P49684).
T1 construct: expressed in transfected cells
T1 sequence (P49684 1-386): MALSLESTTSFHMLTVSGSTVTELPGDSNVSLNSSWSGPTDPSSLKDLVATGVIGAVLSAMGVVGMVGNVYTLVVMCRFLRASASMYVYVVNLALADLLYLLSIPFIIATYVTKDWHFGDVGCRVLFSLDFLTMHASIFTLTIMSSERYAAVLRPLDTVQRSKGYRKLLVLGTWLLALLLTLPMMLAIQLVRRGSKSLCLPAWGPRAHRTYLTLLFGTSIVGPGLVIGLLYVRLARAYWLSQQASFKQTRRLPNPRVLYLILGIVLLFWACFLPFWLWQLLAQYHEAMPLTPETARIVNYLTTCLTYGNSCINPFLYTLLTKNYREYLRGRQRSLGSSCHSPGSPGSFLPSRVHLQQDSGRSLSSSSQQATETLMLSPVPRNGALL
Kind of experiment: Calcium flux assay (FLIPR). In kind it is cell-based. The conditions noted are these: Inhibition of acetyl-cyclic[Cys-Phe-Trp-Lys-(2-Nal)-Cys]-NH2 (1 nM) induced Ca2+ mobilization (FLIPR) in CHO cells transfected with rat UII receptor; 5 min incubation. The gist of the method: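 Stable CHO cell line expressing cloned rat U-II receptor, seeded 24 h before assay, loaded with FLIPR calcium dye in HBSS/20 mM HEPES/0.1% BSA/2.5 mM probenecid, pH 7.4, for 1 hr at 37° C. Calcium mobilization read at room temperature (23° C.).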

The target of another experiment is T2, Human UII receptors (Homo sapiens, UniProt Q9UKP6).
T2 construct: host or cells: Human Skeletal Muscle Myoblasts (HSMM), intact adherent cells
T2 sequence (Q9UKP6 1-389): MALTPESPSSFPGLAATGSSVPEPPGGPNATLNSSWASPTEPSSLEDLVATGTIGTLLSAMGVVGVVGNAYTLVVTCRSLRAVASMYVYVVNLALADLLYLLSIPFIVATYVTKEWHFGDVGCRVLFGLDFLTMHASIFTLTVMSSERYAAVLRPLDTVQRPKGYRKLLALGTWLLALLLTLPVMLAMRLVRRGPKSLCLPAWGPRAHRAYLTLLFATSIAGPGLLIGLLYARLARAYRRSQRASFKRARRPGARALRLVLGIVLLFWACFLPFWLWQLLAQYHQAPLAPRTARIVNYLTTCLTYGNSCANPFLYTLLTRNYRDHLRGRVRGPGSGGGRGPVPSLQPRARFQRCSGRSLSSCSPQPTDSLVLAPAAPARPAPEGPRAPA
The experiment in a line: Human radioligand binding assay, (125I)-U-II on HSMM. The method, then: Human Skeletal Muscle Myoblasts (HSMM) were obtained from Cambrex, and were cultured according to manufacturer's instruction. Cell viability was examined by trypan blue exclusion. Cells at less than 4 passages were used in all studies. […] The binding medium used was Dulbecco's modified Eagle's medium (DMEM) containing 2 mg/ml BSA and 25 mM HEPES (pH 7.4). […] The cells were washed 4× with the binding medium and solubilized in 1% SDS and 0.5 N NaOH. Radioactivity was quantified by gamma counting.

The mark [2] stands for this setting: 0.150 nM (125I)-U-II, intact Human Skeletal Muscle Myoblasts, 3 hrs, 25° C., read-out: Ki.

Like-named read-outs stand apart in the source and are kept apart here.

With `CC(C)(C)OC(=O)NCCCCCCNC(=O)c1cc(Cl)ccc1C1CCN(CCN2C(=O)COc3ccccc32)CC1` [Cpd 74, [6-(5-chloro-2-{1-[2-(3-oxo-2,3-dihydro-benzo[1,4]oxazin-4-yl)-ethyl]-piperidin-4-yl}-benzoylamino)-hexyl]-carbamic acid tert-butyl ester], in experiment [1], the IC50 worked out at 45 nM. Also, the inhibition constant (Ki) at Human UII receptors (setting [2]) came out at 100 nM.
Regarding `CC(C)(C)OC(=O)NCCCCCNC(=O)c1cc(Cl)ccc1C1=CC2CCC(C1)N2CCN1C(=O)COc2ccccc21` (stereo not drawn) [Cpd 95, [5-(5-chloro-2-{8-[2-(3-oxo-2,3-dihydro-benzo[1,4]oxazin-4-yl)-ethyl]-8-aza-bicyclo[3.2.1]oct-2-en-3-yl}-benzoylamino)-pentyl]-carbamic acid tert-butyl ester], the half-maximal inhibitory concentration (IC50) in experiment [1] came to 640 nM. Besides, the inhibitory constant (Ki) on Human UII receptors (setting [2]) was found to be 1300 nM.
With `O=C(NCCc1ccc2ccccc2c1)c1ccccc1C1CCN(CCN2C(=O)COc3ccccc32)CC1` [Cpd 20, N-(2-naphthalen-2-yl-ethyl)-2-{1-[2-(3-oxo-2,3-dihydro-benzo[1,4]oxazin-4-yl)-ethyl]-piperidin-4-yl}-benzamide], the 50% inhibitory concentration (IC50) in experiment [1] worked out at 2000 nM. Also, the Ki on Human UII receptors (setting [2]) turned out to be 720 nM.
In the same order, the values of `O=C(NCCc1ccc2ccccc2c1)c1cc(Cl)ccc1C1CCN(CCN2C(=O)COc3ccccc32)CC1` [Cpd 61, 5-chloro-N-(2-naphthalen-2-yl-ethyl)-2-{1-[2-(3-oxo-2,3-dihydro-benzo[1,4]oxazin-4-yl)-ethyl]-piperidin-4-yl}-benzamide] are 2000 nM and 260 nM.
For `CC(C)(C)OC(=O)N1CCN(CCNC(=O)c2cc(Cl)ccc2C2CCN(CCN3C(=O)COc4ccccc43)CC2)CC1` [Cpd 66, 4-[2-(5-chloro-2-{1-[2-(3-oxo-2,3-dihydro-benzo[1,4]oxazin-4-yl)-ethyl]-piperidin-4-yl}-benzoylamino)-ethyl]-piperazine-1-carboxylic acid tert-butyl ester] the same measures were 15 nM and 57 nM.
On to `CC(C)(C)OC(=O)NCCCCCNC(=O)c1cc(Cl)ccc1C1CCN(CCN2C(=O)CCc3ccccc32)CC1` [Cpd 83, [5-(5-chloro-2-{1-[2-(2-oxo-3,4-dihydro-2H-quinolin-1-yl)-ethyl]-piperidin-4-yl}-benzoylamino)-pentyl]-carbamic acid tert-butyl ester], for which the half-maximal inhibitory concentration (IC50) in experiment [1] was 360 nM. The Ki at Human UII receptors (setting [2]) worked out at 220 nM.
For `CC(C)(C)OC(=O)N1CCC(CNC(=O)c2cc(Cl)ccc2C2CCN(CCN3C(=O)COc4ccccc43)CC2)CC1` [Cpd 58, 4-[(5-chloro-2-{1-[2-(3-oxo-2,3-dihydro-benzo[1,4]oxazin-4-yl)-ethyl]-piperidin-4-yl}-benzoylamino)-methyl]-piperidine-1-carboxylic acid tert-butyl ester] the same measures were 600 nM and 140 nM.
For `CC(C)(C)OC(=O)NCCCCCNC(=O)c1cc(Cl)ccc1C1CCN(CCN2C(=O)COc3ccccc32)CC1` [Cpd 70, [5-(5-chloro-2-{1-[2-(3-oxo-2,3-dihydro-benzo[1,4]oxazin-4-yl)-ethyl]-piperidin-4-yl}-benzoylamino)-pentyl]-carbamic acid tert-butyl ester] the same measures were 32 nM and 25 nM.
Consider `CC(C)(C)CC(=O)NCCCCCNC(=O)c1cc(Cl)ccc1C1CCN(CCN2C(=O)COc3ccccc32)CC1` [Cpd 76, 5-chloro-N-[5-(3,3-dimethyl-butyrylamino)-pentyl]-2-{1-[2-(3-oxo-2,3-dihydro-benzo[1,4]oxazin-4-yl)-ethyl]-piperidin-4-yl}-benzamide], for which the 50% inhibitory concentration (IC50) in experiment [1] is 150 nM. Further, the affinity at Human UII receptors corresponds to a Ki of 43 nM.
As to `CC(C)(C)OC(=O)N1CCC(CCNC(=O)c2cc(Cl)ccc2C2CCN(CCN3C(=O)COc4ccccc43)CC2)CC1` [Cpd 68, 4-[2-(5-chloro-2-{1-[2-(3-oxo-2,3-dihydro-benzo[1,4]oxazin-4-yl)-ethyl]-piperidin-4-yl}-benzoylamino)-ethyl]-piperidine-1-carboxylic acid tert-butyl ester], in experiment [1], the concentration for half-maximal inhibition (IC50) was determined as 100 nM. For the same molecule, the Ki on Human UII receptors (setting [2]) is 47 nM.
Consider `CC(C)(C)OC(=O)N1CCN(CCNC(=O)c2cc(Cl)ccc2C2=CC3CCC(C2)N3CCN2C(=O)COc3ccccc32)CC1` (stereo not drawn) [Cpd 94, 4-[2-(5-chloro-2-{8-[2-(3-oxo-2,3-dihydro-benzo[1,4]oxazin-4-yl)-ethyl]-8-aza-bicyclo[3.2.1]oct-2-en-3-yl}-benzoylamino)-ethyl]-piperazine-1-carboxylic acid tert-butyl ester], for which the IC50 in experiment [1] turned out to be 290 nM. Further, the inhibitory constant (Ki) at Human UII receptors (setting [2]) was 1900 nM.
In the same order, the values of `CC(C)(C)CC(=O)N1CCC(CNC(=O)c2cc(Cl)ccc2C2CCN(CCN3C(=O)COc4ccccc43)CC2)CC1` [Cpd 65, 5-chloro-N-[1-(3,3-dimethyl-butyryl)-piperidin-4-ylmethyl]-2-{1-[2-(3-oxo-2,3-dihydro-benzo[1,4]oxazin-4-yl)-ethyl]-piperidin-4-yl}-benzamide] are 330 nM and 32 nM.
In the same order, the values of `O=C(NCCNC(=O)c1ccccc1C1CCN(CCN2C(=O)COc3ccccc32)CC1)Nc1cccc2ccccc12` [Cpd 55, N-[2-(3-naphthalen-1-yl-ureido)-ethyl]-2-{1-[2-(3-oxo-2,3-dihydro-benzo[1,4]oxazin-4-yl)-ethyl]-piperidin-4-yl}-benzamide] are 2000 nM and 840 nM.
In the same order, the values of `O=C(NCCCCCNS(=O)(=O)Cc1ccccc1)c1cc(Cl)ccc1C1CCN(CCN2C(=O)COc3ccccc32)CC1` [Cpd 78, 5-chloro-2-{1-[2-(3-oxo-2,3-dihydro-benzo[1,4]oxazin-4-yl)-ethyl]-piperidin-4-yl}-N-(5-phenylmethanesulfonylamino-pentyl)-benzamide] are 100 nM and 40 nM.
Take `O=C(NCCCc1ccccc1)c1ccccc1C1CCN(CCN2C(=O)COc3ccccc32)CC1` [Cpd 3]: the IC50 in experiment [1] was found to be 4200 nM. Besides, the inhibition constant (Ki) at Human UII receptors (setting [2]) came to 330 nM.
As to `CC(C)(C)OC(=O)N1CCN(CCNC(=O)c2ccccc2C2CC3CCC(C2)N3CCN2C(=O)COc3ccccc32)CC1` (stereo not drawn) [Cpd 99, 4-[2-(2-{8-[2-(3-oxo-2,3-dihydro-benzo[1,4]oxazin-4-yl)-ethyl]-8-aza-bicyclo[3.2.1]oct-3-yl}-benzoylamino)-ethyl]-piperazine-1-carboxylic acid tert-butyl ester], the concentration for half-maximal inhibition (IC50) in experiment [1] worked out at 1100 nM. On Human UII receptors (setting [2]), the inhibitory constant (Ki) came to 1400 nM.
In the same order, the values of `O=C(NCCCCNC(=O)c1cc(Cl)ccc1C1CCN(CCN2C(=O)COc3ccccc32)CC1)OCc1ccccc1` [Cpd 69, [4-(5-chloro-2-{1-[2-(3-oxo-2,3-dihydro-benzo[1,4]oxazin-4-yl)-ethyl]-piperidin-4-yl}-benzoylamino)-butyl]-carbamic acid benzyl ester] are 150 nM and 62 nM.
For `CC(C)(C)OC(=O)NCCCCCNC(=O)c1cc(Cl)ccc1C1CC2CCC(C1)N2CCN1C(=O)COc2ccccc21` (stereo not drawn) [Cpd 100, [5-(5-chloro-2-{8-[2-(3-oxo-2,3-dihydro-benzo[1,4]oxazin-4-yl)-ethyl]-8-aza-bicyclo[3.2.1]oct-3-yl}-benzoylamino)-pentyl]-carbamic acid tert-butyl ester] the same measures were 450 nM and 1200 nM.

For orientation: IC50 means the concentration that gives 50% inhibition. Broadly, the Ki is the dissociation constant of the complex between target and ligand, obtained from inhibition or displacement.

These data come from patent US8759342B2, “Benzo[1,4]oxazin-3-one, benzo[1,4]thiazin-3-one and quinolin-2-one urotensin II receptor antagonists” (Janssen Pharmaceutica NV, priority 2006, dated 2014).
